This test concerns the target TANK binding kinase (TBK1) (Homo sapiens (Human), UniProt Q9UHD2). Put plainly: TBK1 enzyme assay (384-well Flashplate kinase assay). The settings on record: 10 μM ATP, 120 Min at 30° C. Format: biochemical. The method, then: Test for the Inhibition of TBK1
The kinase assay is performed as 384-well Flashplate assay (for e.g. Topcount measurement. 0.6 nM TANK binding kinase (TBK1), 800 nM biotinylated MELK-derived peptide (Biotin-Ah-Ah-[…]) SEQ ID NO: 2 and 10 μM ATP (spiked with 0.25 μCi ^33P-ATP/well) are incubated in a total volume of 50 μl (10 mM MOPS, 10 mM Mg-acetat, 0.1 mM EGTA, 1 mM DTT, 0.02% Brij35, 0.1% BSA, pH 7.5) with or without test compound for 120 Min at 30° C. The reaction is stopped with 25 μl 200 mM EDTA. After 30 Min at room temperature the liquid is removed and each well washed thrice with 100 μl 0.9% sodium chloride solution. Nonspecific reaction is determined in presence of 100 nM Staurosporine. Radioactivity is measured in a Topcount (PerkinElmer). Results (e.g. IC50-values) are calculated with program tools provided by the IT-department (e.g. AssayExplorer, Symyx).
TANK binding kinase (TBK1), sequence (Q9UHD2 whole entry): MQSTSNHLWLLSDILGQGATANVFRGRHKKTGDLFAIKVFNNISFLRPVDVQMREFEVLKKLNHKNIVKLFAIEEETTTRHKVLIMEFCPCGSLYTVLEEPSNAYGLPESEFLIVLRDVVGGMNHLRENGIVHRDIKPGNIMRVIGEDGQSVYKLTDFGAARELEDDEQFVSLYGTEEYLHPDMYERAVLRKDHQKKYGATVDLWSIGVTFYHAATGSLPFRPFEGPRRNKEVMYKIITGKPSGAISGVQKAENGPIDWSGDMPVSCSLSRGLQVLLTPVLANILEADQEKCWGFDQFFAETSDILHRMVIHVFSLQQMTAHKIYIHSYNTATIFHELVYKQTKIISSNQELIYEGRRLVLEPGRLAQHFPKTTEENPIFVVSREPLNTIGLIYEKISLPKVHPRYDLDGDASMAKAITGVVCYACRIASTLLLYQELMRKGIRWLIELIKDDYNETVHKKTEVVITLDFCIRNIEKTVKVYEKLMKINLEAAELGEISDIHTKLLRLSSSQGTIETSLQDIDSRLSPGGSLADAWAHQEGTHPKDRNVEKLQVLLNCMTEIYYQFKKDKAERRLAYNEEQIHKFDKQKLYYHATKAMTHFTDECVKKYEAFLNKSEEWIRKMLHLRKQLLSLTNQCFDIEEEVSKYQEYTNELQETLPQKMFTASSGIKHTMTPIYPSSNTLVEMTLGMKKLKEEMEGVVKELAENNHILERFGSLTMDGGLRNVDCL
Turning to `CN1CCN(Cc2ccc(C(=O)Nc3sc(-c4ccncc4)nc3C(N)=O)cc2)CC1` [Compound A4, 5-[4-(4-methyl-piperazin-1-ylmethyl)-benzoylamino]-2-pyridin-4-yl-thiazole-4-carboxylic acid amide], the IC50 is 300 nM.
As for `CN1CCN(Cc2ccc(C(=O)Nc3sc(-c4ccnc(Cl)c4)nc3C(N)=O)cc2)CC1` [Compound A5, 2-(2-chloro-pyridin-4-yl)-5-[4-(4-methyl-piperazin-1-ylmethyl)-benzoylamino]-thiazole-4-carboxylic acid amide], the figure is 1400 nM.
As for `NC(=O)c1nc(-c2ccncc2)sc1NC(=O)c1ccc(CC2CCN(C(N)=O)CC2)cc1` [Compound A23, 4-[4-(4-carbamoyl-2-pyridin-4-yl-thiazol-5-ylcarbamoyl)-benzyl]-piperidine-1-carboxylic acid amide], the figure is 94 nM; as for `CN(C)C(=O)CCCCc1ccc(C(=O)Nc2sc(-c3ccncc3)nc2C(N)=O)cc1` [Compound A25, 5-[4-(4-dimethylcarbamoyl-butyl)-benzoylamino]-2-pyridin-4-yl-thiazole-4-carboxylic acid amide], 99 nM.
In the case of `NC(=O)c1nc(-c2ccncc2)sc1NC(=O)c1ccc(CCCCCC(=O)O)cc1` [Compound A28, 6-[4-(4-carbamoyl-2-pyridin-4-yl-thiazol-5-ylcarbamoyl)-phenyl]-hexanoic acid] it was 160 nM; in that of `NC(=O)c1nc(-c2ccncc2)sc1NC(=O)c1ccc(CC2CCNCC2)cc1` [Compound A29, 5-(4-piperidin-4-ylmethyl-benzoylamino)-2-pyridin-4-yl-thiazole-4-carboxylic acid amide], 190 nM; in that of `CC(=O)N1CCC(Cc2ccc(C(=O)Nc3sc(-c4ccncc4)nc3C(N)=O)cc2)CC1` [Compound A30, 5-[4-(1-acetyl-piperidin-4-ylmethyl)-benzoylamino]-2-pyridin-4-yl-thiazole-4-carboxylic acid amide], 200 nM.
`CN(C)CCNCc1ccc(C(=O)Nc2sc(-c3ccncc3)nc2C(N)=O)cc1` [Compound A31, 5-{4-[(2-dimethylamino-ethylamino)-methyl]-benzoylamino}-2-pyridin-4-yl-thiazole-4-carboxylic acid amide] displayed an IC50 of 210 nM.
For `CNC(=O)CCCCc1ccc(C(=O)Nc2sc(-c3ccncc3)nc2C(N)=O)cc1` [Compound A32, 5-[4-(4-methylcarbamoyl-butyl)-benzoylamino]-2-pyridin-4-yl-thiazole-4-carboxylic acid amide], the IC50 was 240 nM.
In turn, `COCCNCc1ccc(C(=O)Nc2sc(-c3ccncc3)nc2C(N)=O)cc1` [Compound A33, 5-{4-[(2-methoxy-ethylamino)-methyl]-benzoylamino}-2-pyridin-4-yl-thiazole-4-carboxylic acid amide] had an IC50 of 260 nM.
In the case of `CN1CCN(C(=O)c2ccc(C(=O)Nc3sc(-c4ccncc4)nc3C(N)=O)cc2)CC1` [Compound A34, 5-[4-(4-methyl-piperazine-1-carbonyl)-benzoylamino]-2-pyridin-4-yl-thiazole-4-carboxylic acid amide] it was 310 nM; in that of `CN(C)C(=O)CCCCCc1ccc(C(=O)Nc2sc(-c3ccncc3)nc2C(N)=O)cc1` [Compound A35, 5-[4-(5-dimethylcarbamoyl-pentyl)-benzoylamino]-2-pyridin-4-yl-thiazole-4-carboxylic acid amide], 580 nM; in that of `NC(=O)c1nc(-c2ccncc2)sc1NC(=O)c1ccc(CN2CCOCC2)cc1` [Compound A36, 5-(4-morpholin-4-ylmethyl-benzoylamino)-2-pyridin-4-yl-thiazole-4-carboxylic acid amide], 645 nM.
As for `NC(=O)c1nc(-c2ccncc2)sc1NC(=O)c1ccc(CN2CCCC2)cc1` [Compound A38, 2-pyridin-4-yl-5-(4-pyrrolidin-1-ylmethyl-benzoylamino)-thiazole-4-carboxylic acid amide], the figure is 1160 nM.

Broadly, the IC50 is the concentration at which inhibition is half-maximal. A low value points to greater potency.

The values are drawn from patent publication US9249114B2, “Thiazole derivatives” (Merck Patent GmbH, priority 2011, dated 2016).
